pIC50: −log10 of the molar value.
Target: T1, Type-2 angiotensin II receptor (Homo sapiens, UniProt P50052)
T1 sequence (P50052 whole entry): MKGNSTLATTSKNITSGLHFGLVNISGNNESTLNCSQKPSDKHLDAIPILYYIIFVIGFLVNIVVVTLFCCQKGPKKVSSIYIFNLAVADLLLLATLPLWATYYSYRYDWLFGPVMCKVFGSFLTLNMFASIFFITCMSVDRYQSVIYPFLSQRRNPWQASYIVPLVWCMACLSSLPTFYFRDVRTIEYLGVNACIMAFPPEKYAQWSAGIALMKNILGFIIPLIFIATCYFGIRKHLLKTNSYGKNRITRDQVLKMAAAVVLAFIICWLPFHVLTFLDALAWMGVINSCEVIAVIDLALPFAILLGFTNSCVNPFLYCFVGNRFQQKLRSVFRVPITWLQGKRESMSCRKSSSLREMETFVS
Assay: AT2 Receptor Binding Assay: 120 μL membrane (5 mg protein/well) was incubated with 15 μL of [125I]-CGP42112A and 15 μL of compound at RT for 1.5 hrs. The binding reaction was stopped by rapid filtration through Unifilter GF/C plates (presoaked in 0.3% (v:v) BSA).Plate was washed three times with ice cold wash buffer.The filtration plates were dried at 37° C. overnight.50 μL of scintillation cocktail was added to each well.Radioactivity was determined using MicroBetaTriluxmicroplate scintillation counter.

Structure (SMILES)	pIC50
COc1ccc2c(c1OCc1ccccc1)C[C@@H](C(=O)NS(=O)(=O)N(C)C)N(C(=O)C(c1ccccc1)c1ccccc1)C2	7.96
COc1ccc2c(c1OCC#Cc1ccc(F)cc1)C[C@@H](C(=O)NS(=O)(=O)N(C)C)N(C(=O)C(c1ccccc1)c1ccccc1)C2	6.69
COc1ccc2c(c1OCC#Cc1ccccc1)C[C@@H](C(=O)NS(=O)(=O)N(C)C)N(C(=O)C(c1ccccc1)c1ccccc1)C2	7.10
COc1ccc2c(c1OCC#Cc1ccc(F)cc1)C[C@@H](C(=O)O)N(C(=O)C(c1ccccc1)c1ccccc1)C2	6.88

Continued, values first:

pIC50	Structure (SMILES)
7.47	O=C(O)[C@@H]1Cc2c(ccc(O)c2OCc2ccccc2)CN1C(=O)C(c1ccccc1)c1ccccc1
7.02	COc1ccc2c(c1OCC#Cc1ccccc1)C[C@@H](C(=O)O)N(C(=O)C(c1ccccc1)c1ccccc1)C2

Reference: ChEMBL document CHEMBL5725527, “Heterocyclic compounds and methods of their use” (2017)
